Source: ChEMBL document CHEMBL1148353, “Development of potent bifunctional endomorphin-2 analogues with mixed mu-/delta-opioid agonist and delta-opioid antagonist properties” (J Med Chem, 2004)
Where a SMILES comes first, the peptide text is derived from it. [ ]: non-standard residue; d: D form. The star is where a group is joined. Dmt = Cc1cc(O)cc(C)c1C[C@H](N)C(=O)O; NHPhenethyl = c1ccc(CCN*)cc1; NHBn = c1ccc(CN*)cc1; NHPh = c1ccc(N*)cc1; NHtBu = CC(C)(C)N*

Key:
[1] = species: Cavia porcellus; test: In vitro inhibitory concentration against electrically induced twitches in guinea pig ileum; format: functional
[2] = species: Mus musculus; test: In vitro inhibitory concentration against electrically induced twitches in mouse vas deferens; format: functional
[3] = biological target: Mu-type opioid receptor (Rattus norvegicus, UniProt P33535); test: Binding affinity against rat brain Opioid receptor mu 1 using [3H]DAMGO radioligand
Mu-type opioid receptor, sequence (P33535 whole entry): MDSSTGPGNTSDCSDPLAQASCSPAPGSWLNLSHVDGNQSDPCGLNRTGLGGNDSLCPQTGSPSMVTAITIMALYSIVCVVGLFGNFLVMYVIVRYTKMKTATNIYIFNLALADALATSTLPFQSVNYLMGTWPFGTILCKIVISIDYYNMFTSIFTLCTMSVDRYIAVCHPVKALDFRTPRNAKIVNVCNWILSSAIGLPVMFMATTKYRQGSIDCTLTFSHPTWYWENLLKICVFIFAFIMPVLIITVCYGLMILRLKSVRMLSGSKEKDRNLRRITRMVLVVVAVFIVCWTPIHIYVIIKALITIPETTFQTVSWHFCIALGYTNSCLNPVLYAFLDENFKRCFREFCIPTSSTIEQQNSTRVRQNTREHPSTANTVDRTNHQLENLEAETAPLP

[4] = biological target: Delta-type opioid receptor (Rattus norvegicus, UniProt P33533); test: Binding affinity against rat brain opioid receptor delta 1 using [3H]DPDPE radioligand
Delta-type opioid receptor, sequence (P33533 whole entry): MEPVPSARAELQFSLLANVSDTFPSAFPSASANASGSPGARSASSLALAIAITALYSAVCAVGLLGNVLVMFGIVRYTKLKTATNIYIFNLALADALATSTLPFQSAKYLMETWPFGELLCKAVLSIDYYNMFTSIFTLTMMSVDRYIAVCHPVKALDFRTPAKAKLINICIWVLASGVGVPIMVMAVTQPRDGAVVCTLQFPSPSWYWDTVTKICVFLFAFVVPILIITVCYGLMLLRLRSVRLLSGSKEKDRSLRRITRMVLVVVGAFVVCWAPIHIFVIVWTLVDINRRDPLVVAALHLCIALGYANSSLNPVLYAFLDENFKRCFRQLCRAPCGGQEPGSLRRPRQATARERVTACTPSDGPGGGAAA

[5] = biological target: Opioid receptors; mu & delta (Rattus norvegicus) (UniProt P33533+P33535); test: Ratio of binding affinity against rat brain delta opioid receptor to that of mu opioid receptor
Opioid receptors; mu & delta (Rattus norvegicus), sequence (P33533 whole entry, looked up): as the sequence (P33533 whole entry) above
Opioid receptors; mu & delta (Rattus norvegicus), sequence (P33535 whole entry, looked up): as the sequence (P33535 whole entry) above

SMILES | IC50 [1] [nM] | IC50 [2] [nM] | Ki [3] [nM] | Ki [4] [nM] | Ratio [5]
Cc1cc(O)cc(C)c1C[C@H](N)C(=O)N1CCC[C@H]1C(=O)N[C@@H](Cc1ccccc1)C(=O)Nc1ccncc1 | 11.8 | 10000 | 0.36 | 52.7 | –
Cc1cc(O)cc(C)c1C[C@H](N)C(=O)N1CCC[C@H]1C(=O)N[C@@H](Cc1ccccc1)C(=O)N[C@@H](Cc1ccccc1)C(N)=O | 0.07 | 1.87 | 0.15 | 28.2 | 188
Cc1cc(O)cc(C)c1C[C@H](N)C(=O)N1CCC[C@H]1C(=O)N[C@@H](Cc1ccccc1)C(=O)Nc1cccc2ccccc12 | 0.49 | 5.47 | – | 19.9 | 68
Cc1cc(O)cc(C)c1C[C@H](N)C(=O)N1CCC[C@H]1C(=O)N[C@@H](Cc1ccccc1)C(=O)Nc1cccnc1 | 72.8 | > 10000 | 0.17 | 288 | –
Cc1cc(O)cc(C)c1C[C@H](N)C(=O)N1CCC[C@H]1C(=O)N[C@@H](Cc1ccccc1)C(=O)Nc1cccc2cnccc12 | 0.94 | > 10000 | 0.19 | 98.3 | –
NC(=O)[C@H](Cc1ccccc1)NC(=O)[C@H](Cc1ccccc1)NC(=O)[C@@H]1CCCN1C(=O)[C@@H](N)Cc1ccc(O)cc1 [ENDOMORPHIN 2] | 5.79 | 344 | – | – | –
NC(=O)[C@H](Cc1ccccc1)NC(=O)[C@@H]1CCCN1C(=O)[C@@H](N)Cc1ccc(O)cc1 (H-Tyr-Pro-Phe-NH2) | – | – | 46.3 | 15900 | 343
Cc1cc(O)cc(C)c1C[C@H](N)C(=O)N1CCC[C@H]1C(=O)N[C@@H](Cc1ccccc1)C(=O)Nc1cccc2cccnc12 | 445 | 2980 | 0.49 | 33.1 | –
N[C@@H](Cc1ccc(O)cc1)C(=O)N1CCC[C@H]1C(=O)N[C@@H](Cc1ccccc1)C(=O)Nc1ccccn1 | – | – | 26.5 | 19700 | 742
Cc1cc(O)cc(C)c1C[C@H](N)C(=O)N1CCC[C@H]1C(=O)N[C@@H](Cc1ccccc1)C(=O)Nc1ccccc1 (H-[Dmt]-Pro-Phe-NHPh) | 37.7 | > 10000 | 1.11 | 20.6 | –
Cc1cc(O)cc(C)c1C[C@H](N)C(=O)N1CCC[C@H]1C(=O)N[C@@H](Cc1ccccc1)C(=O)NCc1ccccc1 (H-[Dmt]-Pro-Phe-NHBn) | 22 | > 10000 | 0.52 | 13.8 | –
N[C@@H](Cc1ccc(O)cc1)C(=O)N1CCC[C@H]1C(=O)N[C@@H](Cc1ccccc1)C(=O)NCc1ccccc1 (H-Tyr-Pro-Phe-NHBn) | – | – | 21.6 | 1730 | 80
N[C@@H](Cc1ccc(O)cc1)C(=O)N1CCC[C@H]1C(=O)N[C@@H](Cc1ccccc1)C(=O)Nc1cccc2ccccc12 | – | – | 2.41 | 3640 | 1510
Cc1cc(O)cc(C)c1C[C@H](N)C(=O)N1CCC[C@H]1C(=O)N[C@@H](Cc1ccccc1)C(=O)Nc1cccc2ncccc12 | 0.26 | 0.616 | 0.11 | 30 | 283
N[C@@H](Cc1ccc(O)cc1)C(=O)N1CCC[C@H]1C(=O)N[C@@H](Cc1ccccc1)C(=O)Nc1cccc2cnccc12 | – | – | 61.1 | 3480 | 57
N[C@@H](Cc1ccc(O)cc1)C(=O)N1CCC[C@H]1C(=O)N[C@@H](Cc1ccccc1)C(=O)Nc1ccc2ncccc2c1 | – | – | 72.9 | 9880 | 136

SMILES | IC50 [1] [nM] | IC50 [2] [nM] | Ki [3] [nM] | Ki [4] [nM] | Ratio [5]
N[C@@H](Cc1ccc(O)cc1)C(=O)N1CCC[C@H]1C(=O)N[C@@H](Cc1ccccc1)C(=O)Nc1cccc2cccnc12 | – | – | 249 | 17100 | 68
CC(C)(C)NC(=O)[C@H](Cc1ccccc1)NC(=O)[C@@H]1CCCN1C(=O)[C@@H](N)Cc1ccc(O)cc1 (H-Tyr-Pro-Phe-NHtBu) | – | – | 19.6 | 13300 | 680
Cc1cc(O)cc(C)c1C[C@H](N)C(=O)N1CCC[C@H]1C(=O)N[C@@H](Cc1ccccc1)C(=O)NCCc1ccccc1 (H-[Dmt]-Pro-Phe-NHPhenethyl) | 5.03 | > 10000 | 0.51 | 18 | 35
N[C@@H](Cc1ccc(O)cc1)C(=O)N1CCC[C@H]1C(=O)N[C@@H](Cc1ccccc1)C(=O)NC1C2C[C@H]3C[C@@H](C2)C[C@@H]1C3 (some centres undefined) | – | – | 6.59 | 5560 | 844
Cc1cc(O)cc(C)c1C[C@H](N)C(=O)N1CCC[C@H]1C(=O)N[C@@H](Cc1ccccc1)C(=O)Nc1ccc2ncccc2c1 | 6.21 | > 10000 | 0.22 | 46.6 | –
Cc1cc(O)cc(C)c1C[C@H](N)C(=O)N1CCC[C@H]1C(=O)N[C@@H](Cc1ccccc1)C(=O)Nc1cnc2ccccc2c1 | 9.14 | > 10000 | 0.33 | 190 | 577
N[C@@H](Cc1ccc(O)cc1)C(=O)N1CCC[C@H]1C(=O)N[C@@H](Cc1ccccc1)C(=O)NC12C[C@H]3C[C@@H](C1)C[C@@H](C2)C3 | – | – | 23.6 | 6260 | 265
N[C@@H](Cc1ccc(O)cc1)C(=O)N1CCC[C@H]1C(=O)N[C@@H](Cc1ccccc1)C(=O)Nc1cnc2ccccc2c1 | – | – | 55.8 | 18600 | 333
N[C@@H](Cc1ccc(O)cc1)C(=O)N1CCC[C@H]1C(=O)N[C@@H](Cc1ccccc1)C(=O)NCCc1ccccc1 (H-Tyr-Pro-Phe-NHPhenethyl) | – | – | 13.3 | 4310 | 324
N[C@@H](Cc1ccc(O)cc1)C(=O)N1CCC[C@H]1C(=O)N[C@@H](Cc1ccccc1)C(=O)Nc1ccncc1 | – | – | 48.2 | 25100 | 521
N[C@@H](Cc1ccc(O)cc1)C(=O)N1CCC[C@H]1C(=O)N[C@@H](Cc1ccccc1)C(=O)NC1CCCCC1 | – | – | 5.79 | 8110 | 1400
N[C@@H](Cc1ccc(O)cc1)C(=O)N1CCC[C@H]1C(=O)N[C@@H](Cc1ccccc1)C(=O)Nc1cccc2ncccc12 | – | – | 4.07 | 12700 | 3110
N[C@@H](Cc1ccc(O)cc1)C(=O)N1CCC[C@H]1C(=O)N[C@@H](Cc1ccccc1)C(=O)Nc1cccnc1 | – | – | 48.5 | 19400 | 400
Cc1cc(O)cc(C)c1C[C@H](N)C(=O)N1CCC[C@H]1C(=O)N[C@@H](Cc1ccccc1)C(N)=O (H-[Dmt]-Pro-Phe-NH2) | 2.33 | 113 | 0.12 | 53.2 | 443
Cc1cc(O)cc(C)c1C[C@H](N)C(=O)N1CCC[C@H]1C(=O)N[C@@H](Cc1ccccc1)C(=O)Nc1ccccn1 | 15 | > 10000 | 0.13 | 157 | –
N[C@@H](Cc1ccc(O)cc1)C(=O)N1CCC[C@H]1C(=O)N[C@@H](Cc1ccccc1)C(=O)Nc1ccccc1 (H-Tyr-Pro-Phe-NHPh) | – | – | 33.5 | 23200 | 692
